Target: T1, ligand binding domain of human ROR gamma (Homo sapiens, UniProt P51449)
T1 construct: NM_001001523; expressed in transfected cells; host or cells: HEK293T
T1 sequence (P51449 247-497 isoform P51449-2): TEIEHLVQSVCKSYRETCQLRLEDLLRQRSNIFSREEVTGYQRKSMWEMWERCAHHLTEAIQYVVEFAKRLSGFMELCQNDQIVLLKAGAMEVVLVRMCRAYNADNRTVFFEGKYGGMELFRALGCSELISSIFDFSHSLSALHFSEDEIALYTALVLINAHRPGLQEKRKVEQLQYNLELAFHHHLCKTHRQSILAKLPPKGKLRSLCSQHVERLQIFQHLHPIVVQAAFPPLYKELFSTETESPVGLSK
Assay: ROR gamma reporter gene assay (GAL4-RORγ LBD luciferase, Dual-Glo)
Type: cell-based
Conditions: HEK293T cells transfected with pM-ROR gamma, 8 concentrations 3.5 nM to 10.5 μM, 24 h incubation; for IC50: read-out: result (pIC50, inhibition of RORγ transcriptional activity) (converted)
Summary of the method: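 Transient GAL4-RORγ LBD (aa 247-497) / 5×UAS-luc / pRL-CMV cotransfection in HEK293T, charcoal-stripped 10% FBS. 8-pt dose, 3.5 nM–10.5 μM, 0.075% DMSO final. 24 h, 37 °C, 5% CO2. Dual-Glo firefly/renilla readout; pIC50 from curve fit.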

Row | Compound | IC50 | result (pIC50, inhibition of RORγ transcriptional activity)
1 | O=C(CN(CC12CC3CC(CC(C3)C1)C2)C(=O)c1cnn([C@H]2CC[C@H](C(=O)O)CC2)c1C(F)(F)F)c1c(Cl)cncc1Cl [Example 123, trans-4-(4-(1-adamantylmethyl-(2-(3,5-dichloropyridin-4-yl)-2-oxoethyl)carbamoyl)-5-(trifluoromethyl)pyrazol-1-yl)cyclohexane-1-carboxylic acid] | 4900 pM | 
2 | CC(C)(C)CN(CC(=O)c1c(Cl)cncc1Cl)C(=O)c1cnn(C2CCC(C)(C(=O)O)CC2)c1Cl (stereo not drawn) [Example 276, trans-4-(5-chloro-4-((2-(3,5-dichloropyridin-4-yl)-2-oxoethyl)-(2,2-dimethylpropyl)carbamoyl)pyrazol-1-yl)-1-methylcyclohexane-1-carboxylic acid] |  | 6.91
3 | CC1(C)CCC(CN(CC(=O)c2c(Cl)cncc2Cl)C(=O)c2cnn([C@H]3CC[C@H](C(=O)O)CC3)c2C(F)(F)F)CC1 [Example 36, trans-4-(4-((2-(3,5-dichloropyridin-4-yl)-2-oxoethyl)((4,4-dimethylcyclohexyl)methyl)carbamoyl)-5-(trifluorornethyl)-1H-pyrazol-1-yl)cyclohexanecarboxylic acid] | 117000 pM | 
4 | O=C(CN(CC1CCCCC1)C(=O)c1cnn([C@H]2CC[C@H](C(=O)O)CC2)c1C(F)(F)F)c1c(Cl)cncc1Cl [Example 30, trans-4-(4-((cyclohexylmethyl)(2-(3,5-dichloropyridin-4-yl)-2-oxoethyl)carbamoyl)-5-(trifluoromethyl)-1H-pyrazol-1-yl)cyclohexanecarboxylic acid] | 46800 pM | 
5 | O=C(CN(Cc1ccc(F)cc1)C(=O)c1cnn([C@H]2CC[C@@H](C(=O)O)CC2)c1C(F)(F)F)c1c(Cl)cncc1Cl [Example 25, cis-4-(4-((2-(3,5-dichloropyridin-4-yl)-2-oxoethyl)(4-fluorobenzyl)carbamoyl)-5-(trifluoromethyl)-1H-pyrazol-1-yl)cyclohexaneca rboxylic acid] | 263000 pM | 
6 | Nc1cccc(Cl)c1C(=O)CN(Cc1cc(F)cc(F)c1)C(=O)c1cnn([C@H]2CC[C@H](C(=O)O)CC2)c1C(F)(F)F [Example 11, trans-4-(4-((2-(2-amino-6-chlorophenyl)-2-oxoethyl)(3,5-difluorobenzyl)carbamoyl)-5-(trifluoromethyl)-1H-pyrazol-1-yl)cyclohexanecarboxylic acid] | 38000 pM | 
7 | COC(CN(Cc1cc(F)cc(F)c1)C(=O)c1cnn([C@H]2CC[C@H](C(=O)O)CC2)c1C(F)(F)F)c1c(Cl)cncc1Cl (stereo partly drawn) [Example 109, trans-4-(4-((2-(3,5-dichloropyridin-4-yl)-2-methoxyethyl)-((3,5-difluorophenyl)methyl)carbamoyl)-5-(trifluoromethyl)pyrazol-1-yl)cyclohexane-1-carboxylic acid] | 631000 pM | 
8 | Nc1ccccc1C(=O)CN(Cc1cc(F)cc(F)c1)C(=O)c1cnn([C@H]2CC[C@H](C(=O)O)CC2)c1C(F)(F)F [Example 142, trans-4-(4-((2-(2-aminophenyl)-2-oxoethyl)-((3,5-difluorophenyl)methyl)carbamoyl)-5-(trifluoromethyl)pyrazol-1-yl)cyclohexane-1-carboxylic acid] | 6.61e+06 pM | 
9 | CC1(C)CC(CN(CC(=O)c2c(Cl)cncc2Cl)C(=O)c2cnn([C@H]3CC[C@H](C(=O)O)CC3)c2C(F)(F)F)C1 [Example 23, trans-4-(4-((2-(3,5-dichloropyridin-4-yl)-2-oxoethyl)((3,3-dimethylcyclobutyl)methyl)carbamoyl)-5-(trifluoromethyl)-1H-pyrazol-1-yl)cyclohexanecarboxylic acid] | 24000 pM | 
10 | O=C(CN(Cc1ccc(F)cc1)C(=O)c1cnn([C@H]2CC[C@H](C(=O)NCCO)CC2)c1C(F)(F)F)c1c(Cl)cncc1Cl [Example 89, N-(2-(3,5-dichloropyridin-4-yl)-2-oxoethyl)-N-(4-fluorobenzyl)-1-(trans-4-((2-hydroxyethyl)carbamoyl)cyclohexyl)-5-(trifluoromethyl)-1H-pyrazole-4-carboxamide] | 1.38e+06 pM | 
11 | O=C(CN(Cc1ccc(Cl)cc1)C(=O)c1cnn([C@H]2CC[C@H](C(=O)O)CC2)c1C(F)(F)F)c1c(Cl)cncc1Cl [Example 41, trans-4-(4-((4-chlorobenzyl)(2-(3,5-dichloropyridin-4-yl)-2-oxoethyl)carbamoyl)-5-(trifluoromethyl)-1H-pyrazol-1-yl)cyclohexanecarboxylic acid] | 29500 pM | 

The next lines start with results.

Row | IC50 | Compound | result (pIC50, inhibition of RORγ transcriptional activity)
12 | 8.13e+06 pM | O=C(CN(Cc1ccnnc1)C(=O)c1cnn([C@H]2CC[C@H](C(=O)O)CC2)c1C(F)(F)F)c1c(Cl)cccc1Cl [Example 151, trans-4-(4-((2-(2,6-dichlorophenyl)-2-oxoethyl)-(pyridazin-4-ylmethyl)carbamoyl)-5-(trifluoromethyl)pyrazol-1-yl)cyclohexane-1-carboxylic acid] | 
13 | 10500 pM | Cc1cc(Cl)c(C(=O)CN(C(=O)c2cnn(C34CCC(C(=O)O)(CC3)CC4)c2C(F)(F)F)C2CCC(C)(C)CC2)c(Cl)c1 [Example 236, 4-(4-((2-(2,6-dichloro-4-methylphenyl)-2-oxoethyl)-(4,4-dimethylcyclohexyl)carbamoyl)-5-(trifluoromethyl)pyrazol-1-yl)bicyclo[2.2.2]octane-1-carboxylic acid] | 
14 | > 1e+07 pM | O=C(CN(Cc1ccc(F)cc1)C(=O)c1cnn([C@H]2CC[C@H](C(=O)O)CC2)c1C(F)(F)F)c1c(Cl)cc[nH]c1=O [Example 195, trans-4-(4-((2-(4-chloro-2-oxo-1H-pyridin-3-yl)-2-oxoethyl)-((4-fluorophenyl)methyl)carbamoyl)-5-(trifluoromethyl)pyrazol-1-yl)cyclohexane-1-carboxylic acid] | 
15 | 13200 pM | C[C@]1(C(=O)O)CC[C@H](n2ncc(C(=O)N(CC(=O)c3c(Cl)cccc3C(F)(F)F)CC3CC4(CC4)C3)c2C(F)(F)F)CC1 [Example 235, trans-4-(4-((2-(2-chloro-6-(trifluoromethyl)phenyl)-2-oxoethyl)-(spiro[2.3]hexan-5-ylmethyl)carbamoyl)-5-(trifluoromethyl)pyrazol-1-yl)-1-methylcyclohexane-1-carboxylic acid] | 
16 | 52500 pM | CC(C)CC(C)N(CC(=O)c1c(Cl)cncc1Cl)C(=O)c1cnn([C@H]2CC[C@](C)(C(=O)O)CC2)c1C(F)(F)F (stereo partly drawn) [Example 312, trans-4-(4-((2-(3,5-dichloropyridin-4-yl)-2-oxoethyl)-(4-methylpentan-2-yl)carbamoyl)-5-(trifluoromethyl)pyrazol-1-yl)-1-methylcyclohexane-1-carboxylic acid] | 
17 | 63100 pM | CC(C)(C)C#CCN(CC(=O)c1c(Cl)cc(Cl)cc1Cl)C(=O)c1cnn([C@H]2CC[C@](C)(C(=O)O)CC2)c1C(F)(F)F [Example 207, trans-4-(4-(4,4-dimethylpent-2-ynyl-(2-oxo-2-(2,4,6-trichlorophenyl)ethyl)carbamoyl)-5-(trifluoromethyl)pyrazol-1-yl)-1-methylcyclohexane-1-carboxylic acid] | 
18 | 9120 pM | CC1(CN(CC(=O)c2c(Cl)cncc2Cl)C(=O)c2cnn(C34CCC(C(=O)O)(CC3)CC4)c2C(F)(F)F)CC1 [Example 316, 4-(4-((2-(3,5-dichioropyridin-4-yl)-2-oxoethyl)-((1-methylcyclopropyl)methyl)carbamoyl)-5-(trifluoromethyl)pyrazol-1-yl)bicyclo[2.2.2]octane-1-carboxylic acid] | 
19 | 20000 pM | COc1cccc(Cl)c1C(=O)CN(CC1CC(C)(C)C1)C(=O)c1cnn(C23CCC(C(=O)O)(CC2)CC3)c1C(F)(F)F [Example 257, 4-(4-((2-(2-chloro-6-methoxyphenyl)-2-oxoethyl)-((3,3-dimethylcyclobutyl)methyl)carbamoyl)-5-(trifluoromethyl)pyrazol-1-yl)bicyclo[2.2.2]octane-1-carboxylic acid] | 
20 | 26300 pM | CC1(C)CCC(N(CC(=O)c2c(Cl)cc(F)cc2Cl)C(=O)c2cnn([C@H]3CC[C@](C)(C(=O)O)CC3)c2Cl)CC1 [Example 345, trans-4-(5-chloro-4-((2-(2,6-dichloro-4-fluorophenyl)-2-oxoethyl)-(4,4-dimethylcyclohexyl)carbamoyl)pyrazol-1-yl)-1-methylcyclohexane-1-carboxylic acid] | 
21 | 1.02e+06 pM | CC(C)c1c(C(=O)N(CC(=O)c2c(Cl)cncc2Cl)Cc2cc(F)cc(F)c2)cnn1[C@H]1CC[C@H](C(=O)O)CC1 [Example 162, trans-4-(4-((2-(3,5-dichloropyridin-4-yl)-2-oxoethyl)-((3,5-difluorophenyl)methyl)carbamoyl)-5-propan-2-ylpyrazol-1-yl)cyclohexane-1-carboxylic acid] | 
22 | 4570 pM | Cc1cc(Cl)c(C(=O)CN(CC23CCC(C)(CC2)O3)C(=O)c2cnn(C34CCC(C(=O)O)(CC3)CC4)c2C(F)(F)F)c(Cl)c1 [Example 261, 4-(4-((2-(2,6-dichloro-4-methylphenyl)-2-oxoethyl)-((1-methyl-7-oxabicyclo[2.2.1]heptan-4-yl)methyl)carbamoyl)-5-(trifluoromethyl)pyrazol-1-yl)bicyclo[2.2.2]octane-1-carboxylic acid] | 
23 | 8.32e+06 pM | Cc1cc(Cl)c(C(=O)CN(Cc2cc(F)cc(F)c2)C(=O)c2cnn([C@H]3CC[C@H](C(=O)O)CC3)c2C(F)(F)F)c(C#N)c1 [Example 307, trans-4-(4-((2-(2-chloro-6-cyano-4-methylphenyl)-2-oxoethyl)-((3,5-difluorophenyl)methyl)carbamoyl)-5-(trifluoromethyl)pyrazol-1-yl)cyclohexane-1-carboxylic acid] | 

— patent publication US9365522B2, “Pyrazole amide derivative” (AMGEN INC., priority 2015, dated 2016)
